Values joined by “and” are separate entries in the source; they are usually repeats but may differ in a detail not shown here. Equal values may be shown once. Read-outs that look alike come from different tables or passages of the source.
Columns and labels:
Wistar rats [1] = details: rat, in vivo, po
Wistar rats [2] = assay: Acute oral toxicity, OECD Test No. 423 (mortality, signs, LD50, body weight); type: in vivo; details: oral 300 and 2000 mg/kg, test days 2, 3, 9 and 10
Method: Female Wistar rats (250 g b.w.) were used. These animals were obtained from Bioterium from División de Ciencias de la Salud at the Universidad de Quintana Roo. They were maintained under standard environmental conditions (22 ± 3 °C, 12 h/12 h light/dark cycle), and free access to standard rodent diet and water ad libitum. All animal procedures were conducted under our Federal Regulations for Animal Experimentation and Care and were approved by the Institutional Animal Care and Use Committee of the “Universidad Juárez Autónoma de Tabasco” university (Code:2017-001, Approved: October 2017). Rats were acclimatized for 1 week before the start of experimental procedures.
The half lethal dose (LD50) was estimated using the fixed-dose method described in OECD Guidelines for the Testing of Chemicals (Test No. 423: Acute Oral Toxicity-Class Method; OECD, 2001). […] This method allowed a step-by-step assay according to the chosen dose to begin the experiment. Subsequently, depending on the presence or absence of mortality, the decision to continue within the next step is taken, so fewer experimental animals should be used.
(§1) Rats used for this experiment were fasted for 8 h and were organized into two groups of three rats for each dose and each flavonoid. Likewise, the control group received isotonic 0.9% sodium chloride solution (dose: 5 mL/kg). All rats were closely observed for toxic symptoms and behavioral changes (sedation, hyperactivity, writhing, pruritus, feeding and drinking habits, general morphological changes, and bite legs) for 30 min and periodically 24 h post-administration. Animals were observed daily (14 days) and mortality rate recorded. A LD50 was estimated according to criteria of OECD guide 423.
The rats’ body weight in each group was determined and recorded before the treatment initiation and after 14 days. Changes in the body weight at the end of the 14 days were calculated. Once observation time was completed and to detect any adverse effect, blood samples were collected by cardiac puncture after the previous fasting of 8 h. […] In addition, organ weight was determined.

Wistar rats [3] = type: in vivo
Method: as §1
The rats’ body weight in each group was determined and recorded before the treatment initiation and after 14 days. Changes in the body weight at the end of the 14 days were calculated. Once observation time was completed and to detect any adverse effect, blood samples were collected by cardiac puncture after the previous fasting of 8 h. For this purpose, rats were anesthetized by intraperitoneally 50 mg/kg sodium pentobarbital. The liver was carefully extracted, rinsed in normal saline, drained on blotting paper, and carefully examined for tissue lesions. In addition, organ weight was determined.
Rat blood samples were analyzed by a hematology auto-analyzer system (Sysmex XS-1000i®, SYSMEX®, Oak Ridge, TN, USA). The parameters quantified on this stage were: blood count-packed cell volume (PCV), red blood cell (RBC) count, hemoglobin (Hb), platelet count, white blood cell (WBC) count, mean cell hemoglobin concentration (MCHC), mean red cell volume (MCV), mean cell hemoglobin (MCH), prothrombin time (PT), and activated partial thromboplastin time (aPTT).

MDCK cells = assay: MTT-based cytotoxicity assay in MDCK cells; type: cell-based, Canine; details: 48 h, 125 to 750 µg/mL (QRT effect at 250 and 500 µg/mL)
Method: (§2) VERO and MDCK cell lines were acquired from American Type Culture Collection (ATCC, Manassas, VA, USA). […] In vitro cytotoxicity assay was performed on Madin-Darby Canine Kidney Epithelial Cells (MDCK) and green Monkey Kidney Cells (VERO) by MTT-based assay. Briefly, cells were seeded in 96-well plates at a density of 2.5 × 10^3 cells/well. […] The absorbance was measured after 45 min using a microplate reader (Multiskan Asent®) at a wavelength of 550 nm. The criteria for categorizing cytotoxicity against MDCK and VERO cells are based on the U.S. National Cancer Institute (NCI). The criteria comprise as follow: […] All results were expressed as mean ± standard error. The results from the in vivo and in vitro experiments were analyzed using software Origin® 8.0. […] The IC50 (half inhibitory concentration) values were calculated in Origin software®, (Northampton, MA, USA) and one-way ANOVA analysis was compared with cisplatin as the control.

VERO cells = assay: MTT-based cytotoxicity assay in VERO cells; type: cell-based, green Monkey; details: 48 h, 125 to 750 µg/mL (QRT effect at 250–750 µg/mL)
Method: as §2

Swiss-albino mice = details: cited from earlier work
[4] = MTT-based cytotoxicity assay in VERO cells; type: cell-based, green Monkey; details: green monkey, MTT
Method: as §2

SMILES: O=C1C[C@@H](c2ccc(O)cc2)Oc2cc(O)cc(O)c21 [NARGE, naringenin]
- ALB (albumin) (Wistar rats [1]; 300 mg/kg): 3.86 ± 0.10 g/dL
- ALB/GL Ratio (Wistar rats [1]; 300 mg/kg): 1.26 ± 0.08
- ALT (Wistar rats [1]; 300 mg/kg): 39.19 ± 0.77 IU/L
- AST (Wistar rats [1]; 300 mg/kg): 156.06 ± 9.33 IU/L
- DB (direct bilirubin) (Wistar rats [1]; 300 mg/kg): 0.013 ± 0.007 mg/dL
- GL (globulin) (Wistar rats [1]; 300 mg/kg): 3.11 ± 0.25 g/dL
- GLU (glucose) (Wistar rats [1]; 300 mg/kg): 145.29 ± 5.47 mg/dL
- IB (indirect bilirubin) (Wistar rats [1]; 300 mg/kg): 0.051 ± 0.007 mg/dL
- TB (total bilirubin) (Wistar rats [1]; 300 mg/kg): 0.064 ± 0.005 mg/dL
- TP (total protein) (Wistar rats [1]; 300 mg/kg): 6.97 ± 0.30 g/dL
- ALB (albumin) (Wistar rats [1]; 2000 mg/kg): 4.74 ± 0.16 g/dL
- ALB/GL Ratio (Wistar rats [1]; 2000 mg/kg): 1.56 ± 0.14
- ALT (Wistar rats [1]; 2000 mg/kg): 57.68 ± 10.97 IU/L
- AST (Wistar rats [1]; 2000 mg/kg): 149.37 ± 7.16 IU/L
- DB (direct bilirubin) (Wistar rats [1]; 2000 mg/kg): 0.020 ± 0.001 mg/dL
- GL (globulin) (Wistar rats [1]; 2000 mg/kg): 3.08 ± 0.17 g/dL
- GLU (glucose) (Wistar rats [1]; 2000 mg/kg): 175.56 ± 6.80 mg/dL
- IB (indirect bilirubin) (Wistar rats [1]; 2000 mg/kg): 0.045 ± 0.060 mg/dL
- TB (total bilirubin) (Wistar rats [1]; 2000 mg/kg): 0.065 ± 0.007 mg/dL
- TP (total protein) (Wistar rats [1]; 2000 mg/kg): 7.82 ± 0.07 g/dL
- rats' weight vs control (Wistar rats [2]): modifies rats’ weight
- Erythrocytes (Wistar rats [3]; rat, in vivo, po, 300 mg/kg): 6.98±1.18 106/µL
- Hb (Wistar rats [3]; rat, in vivo, po, 300 mg/kg): 12.00 ± 1.81 g/dL
- Hto (Wistar rats [3]; rat, in vivo, po, 300 mg/kg): 36.76±5.31%
- Leukocytes (Wistar rats [3]; rat, in vivo, po, 300 mg/kg): 5.31±0.74 103/µL
- MCH (Wistar rats [3]; rat, in vivo, po, 300 mg/kg): 17.40 ± 0.39 pg
- MCHC (Wistar rats [3]; rat, in vivo, po, 300 mg/kg): 32.53 ± 0.49 g/dL
- MCV (Wistar rats [3]; rat, in vivo, po, 300 mg/kg): 53.46 ± 1.87 fL
- Platelets (Wistar rats [3]; rat, in vivo, po, 300 mg/kg): 726.00±12.26 105/µL
- RBCDW (Wistar rats [3]; rat, in vivo, po, 300 mg/kg): 17.80±1.89%
- APTT (Wistar rats [3]; rat, in vivo, po, 2000 mg/kg): 26.26 ± 1.85 s
- Erythrocytes (Wistar rats [3]; rat, in vivo, po, 2000 mg/kg): 8.03±0.29 106/µL
- Hb (Wistar rats [3]; rat, in vivo, po, 2000 mg/kg): 14.23 ± 0.22 g/dL
- Hto (Wistar rats [3]; rat, in vivo, po, 2000 mg/kg): 44.63±0.44%
- Leukocytes (Wistar rats [3]; rat, in vivo, po, 2000 mg/kg): 5.57±1.20 103/µL
- MCH (Wistar rats [3]; rat, in vivo, po, 2000 mg/kg): 18.05 ± 0.39 pg
- MCHC (Wistar rats [3]; rat, in vivo, po, 2000 mg/kg): 31.25 ± 0.18 g/dL
- MCV (Wistar rats [3]; rat, in vivo, po, 2000 mg/kg): 57.85 ± 1.59 fL
- PT (Wistar rats [3]; rat, in vivo, po, 2000 mg/kg): 15.46 ± 0.71 s
- RBCDW (Wistar rats [3]; rat, in vivo, po, 2000 mg/kg): 18.93±0.14%
- percentage viability / growth of cells (MDCK cells): did not change the percentage of growth
- percentage viability / growth of cells (VERO cells): did not change the percentage of growth

SMILES: O=c1c(O)c(-c2ccc(O)c(O)c2)oc2cc(O)cc(O)c12 [QRT, Quercetin]
- ALB (albumin) (Wistar rats [1]; 50 mg/kg): 3.88 ± 0.04 g/dL
- ALB/GL Ratio (Wistar rats [1]; 50 mg/kg): 1.56 ± 0.087
- GL (globulin) (Wistar rats [1]; 50 mg/kg): 2.50 ± 0.14 g/dL
- GLU (glucose) (Wistar rats [1]; 50 mg/kg): 119.67 ± 8.74 mg/dL
- IB (indirect bilirubin) (Wistar rats [1]; 50 mg/kg): 0.036 ± 0.003 mg/dL
- TB (total bilirubin) (Wistar rats [1]; 50 mg/kg): 0.08 ± 0.006 mg/dL
- TP (total protein) (Wistar rats [1]; 50 mg/kg): 6.38 ± 0.15 g/dL
- ALB (albumin) (Wistar rats [1]; 300 mg/kg): 3.63 ± 0.09 g/dL
- ALB/GL Ratio (Wistar rats [1]; 300 mg/kg): 1.39 ± 0.15
- DB (direct bilirubin) (Wistar rats [1]; 300 mg/kg): 0.016 ± 0.004 mg/dL
- GL (globulin) (Wistar rats [1]; 300 mg/kg): 2.84 ± 0.16 g/dL
- GLU (glucose) (Wistar rats [1]; 300 mg/kg): 149.49 ± 5.00 mg/dL
- IB (indirect bilirubin) (Wistar rats [1]; 300 mg/kg): 0.030 ± 0.006 mg/dL
- TB (total bilirubin) (Wistar rats [1]; 300 mg/kg): 0.05 ± 0.003 mg/dL
- TP (total protein) (Wistar rats [1]; 300 mg/kg): 6.48 ± 0.065 g/dL
- MCV (Wistar rats [3]): 56.45 ± 3.05 fL
- PT (Wistar rats [3]): 16.20 ± 2.00 s
- Platelets (Wistar rats [3]): 759.00±22.00 105/µL
- RBCDW (Wistar rats [3]): 17.95±0.45%
- APTT (Wistar rats [3]; rat, in vivo, po, 50 mg/kg): 14.55 ± 0.25 s
- Hb (Wistar rats [3]; rat, in vivo, po, 50 mg/kg): 14.55 ± 0.65 g/dL
- Hto (Wistar rats [3]; rat, in vivo, po, 50 mg/kg): 45.50±2.30%
- Leukocytes (Wistar rats [3]; rat, in vivo, po, 50 mg/kg): 3.65±0.60 103/µL
- MCH (Wistar rats [3]; rat, in vivo, po, 50 mg/kg): 18.05 ± 0.85 pg
- APTT (Wistar rats [3]; rat, in vivo, po, 300 mg/kg): 15.75 ± 1.45 s
- Erythrocytes (Wistar rats [3]; rat, in vivo, po, 300 mg/kg): 8.12±0.32 106/µL
- Hb (Wistar rats [3]; rat, in vivo, po, 300 mg/kg): 14.67 ± 0.45 g/dL
- Hto (Wistar rats [3]; rat, in vivo, po, 300 mg/kg): 45.73±1.15%
- Leukocytes (Wistar rats [3]; rat, in vivo, po, 300 mg/kg): 4.21±0.38 103/µL
- MCH (Wistar rats [3]; rat, in vivo, po, 300 mg/kg): 18.07 ± 0.20 pg
- MCV (Wistar rats [3]; rat, in vivo, po, 300 mg/kg): 56.37 ± 0.90 fL
- PT (Wistar rats [3]; rat, in vivo, po, 300 mg/kg): 16.00 ± 2.65 s
- Platelets (Wistar rats [3]; rat, in vivo, po, 300 mg/kg): 665.00±125.33 105/µL
- RBCDW (Wistar rats [3]; rat, in vivo, po, 300 mg/kg): 16.80±0.20%
- alkaline phosphatase (ALP) (Swiss-albino mice; 128 or 450 mg/kg orally for 14 days): increased
- AST (Swiss-albino mice; higher dose, orally for 14 days): declined
- bilirubin (Swiss-albino mice; only at 128 mg/kg, orally for 14 days): also increased
- percentage viability / growth of cells (MDCK cells): caused significant differences in the rate of cell viability
- percentage viability / growth of cells (VERO cells): produced a decrease in the percentage viability
- IC50 at 48 h [4]: 465 µM and 141 µg/mL
- IC50 at 48 h ([4]; abstract, first value of 'respectively'): 219 ± 7.22 µM
